In patent US9382294B2, “Broad spectrum antibiotic compounds and use thereof” (Los Alamos National Security, LLC, priority 2013, dated 2016):
In brackets after ≈: the same amount, converted by molar mass. Counter-ions that a name gives are not always drawn. Like-named read-outs stand apart in the source and are kept apart here.

Key:
A. baumannii ATCC 19606 = test: MIC of more highly purified compounds (Table 3); type: cell-based
Source text: (§1) MIC was further evaluated using EtOAc extracts of more highly purified Compound #1 and Compound #2. MIC of these compounds was compared to ACHN-490 (Plazomicin; an aminoglycoside effective primarily against Gram-negative bacteria), Colistin (a polymyxin antibiotic effective against most Gram-negative bacilli), and Meropenem (an ultra broad-spectrum, beta-lactam antibiotic).

HeLa cells = test: in vitro cell toxicology assay; type: cell-based, human
Experimental: (§2) In vitro cell toxicology assays were performed to evaluate the effect of Compound #1 on human cells. Compound #1, dissolved in DMSO, was added to vital cultures of HeLa cells and peripheral blood mononuclear cells (PMBC) one day after the cell cultures were started. For each cell line, pure DMSO (control #1), no DMSO (control #2) and Compound #1 in one times (T1-5 nM), five times (T5-25 nM) and ten times (T10-50 nM) of the bacteria-toxic concentration was added to the cell cultures for two sets each. All ten culture flasks per cell line (2×: T1, T5, T10, […]#2) were incubated under identical conditions and simple cell counts were performed on days two, four and six while replacing the cell culture medium to maintain the concentration of Compound #1.

[1] = system: peripheral blood mononuclear cells (PMBC); test: in vitro cell toxicology assay; type: cell-based, human; settings: 5, 25, 50 nM
Experimental: as §2

S. pneumoniae ATCC 49619 [2] = test: MIC broth dilution assay (Table 2); type: cell-based; settings: Streptococcus pneumoniae, ATCC49619, CAMHB + LHB, 20-24 h, read-out: Minimum inhibitory concentration (MIC)
Experimental: (§3) Stocks of test compounds and standards were diluted 1:100 to provide working stocks in each growth medium. For P. aeruginosa, S. enterica and S. aureus, eleven serial, one-half dilutions of the compounds and standards were prepared in 96-well polypropylene dilution blocks in cation-adjusted Mueller Hinton broth (CAMHB). The dilutions were transferred to 96-well assay plates. […] Bacterial suspensions were prepared and added to each well at a concentration of approximately 5×10^5 colony-forming-units per milliliter. […] At the completion of incubation the wells of each plate were evaluated visually for the presence of bacterial growth. The MIC was the concentration at which there was no growth. MICs against H. influenzae, S. pneumoniae and C. difficile were determined similarly, but dilutions were prepared directly in the 96-well assay plates and MIC parameters were as indicated below (Table 1). [table]

C. difficile ATCC 70057 = test: MIC of more highly purified compounds (Table 3); type: cell-based; settings: Clostridioides difficile, ATCC70057, EtOAc extracts of more highly purified compounds
Source text: as §1

S. enterica ATCC 14028 [3] = test: MIC of more highly purified compounds (Table 3); type: cell-based
Source text: as §1

H. influenzae ATCC 49247 [4] = test: MIC of more highly purified compounds (Table 3); type: cell-based; settings: Haemophilus influenzae, ATCC49247, EtOAc extracts of more highly purified compounds
Source text: as §1

[5] = system: S. aureus (MRSA) ATCC 33591; test: MIC of more highly purified compounds (Table 3); type: cell-based; settings: EtOAc extracts of more highly purified compounds
Source text: as §1

K. pneumoniae ATCC 43816 = test: MIC of more highly purified compounds (Table 3); type: cell-based
Source text: as §1

S. pneumoniae ATCC 49619 [6] = test: MIC of more highly purified compounds (Table 3); type: cell-based; settings: Streptococcus pneumoniae, ATCC49619, EtOAc extracts of more highly purified compounds
Source text: as §1

P. aeruginosa ATCC 27853 = test: MIC broth dilution assay (Table 2); type: cell-based; settings: Pseudomonas aeruginosa, ATCC27853, CAMHB, 16-20 h, 35° C., read-out: Minimum inhibitory concentration (MIC)
Experimental: (§4) Stocks of test compounds and standards were diluted 1:100 to provide working stocks in each growth medium. For P. aeruginosa, S. enterica and S. aureus, eleven serial, one-half dilutions of the compounds and standards were prepared in 96-well polypropylene dilution blocks in cation-adjusted Mueller Hinton broth (CAMHB). The dilutions were transferred to 96-well assay plates. […] Bacterial suspensions were prepared and added to each well at a concentration of approximately 5×10^5 colony-forming-units per milliliter. The inoculated plates were incubated for 16-20 hours at 35±1° C. At the completion of incubation the wells of each plate were evaluated visually for the presence of bacterial growth. The MIC was the concentration at which there was no growth.

S. enterica ATCC 14028 [7] = test: MIC broth dilution assay (Table 2); type: cell-based; settings: Salmonella enterica, ATCC14028, CAMHB, 16-20 h, 35° C., read-out: Minimum inhibitory concentration (MIC)
Experimental: as §4

C. difficile ATCC 700057 = test: MIC broth dilution assay (Table 2); type: cell-based, Clostridium difficile; settings: Clostridioides difficile
Experimental: as §3

H. influenzae ATCC 49247 [8] = test: MIC broth dilution assay (Table 2); type: cell-based; settings: ATCC49247, Haemophilus Test Medium Broth, 20-24 h, read-out: Minimum inhibitory concentration (MIC)
Experimental: as §4, with “The inoculated plates were incubated for 16-20 hours at 35±1° C.” left out

[9] = radio-HPLC of C. thermocellum culture fed 14C-labelled amino acids (water solubility of metabolite); type: physicochemical; settings: no new peak in radio-HPLC of culture
Experimental: C. thermocellum was grown anaerobically in cellulose-containing medium. ^14C-labelled amino acids (^14C-L-Asp, ^14C-L-Leu and ^14C-L-Ile) were added to the culture media and radio-HPLC was performed. […] The orange suspension was centrifuged, the liquid layer separated from the cells and the DMSO was removed under reduced pressure. The final yield from this process was 14.7 mg.

[10] = system: Pseudomonas putida (ATCC 11172); test: bacterial growth inhibition assay (cellulose disks); type: cell-based; settings: 0.85 μg on 6 mm cellulose disk
Experimental: (§5) To evaluate the antibiotic properties of the compounds produced by the NRPS cluster, Compound #1 or Compound #2 (0.85 μg) was diluted in 2 μl DMSO and soaked onto 6 mm cellulose disks for a bacterial growth inhibition assay.

[11] = system: Staphylococcus aureus (ATCC 2913); test: as above; type: cell-based; settings: 0.85 μg on 6 mm cellulose disk
Experimental: as §5

Bacillus subtilis PY79 = test: as above; type: cell-based; settings: 0.85 μg on 6 mm cellulose disk
Experimental: as §5

E. coli K-12 = test: as above; type: cell-based; settings: 0.85 μg on 6 mm cellulose disk
Experimental: as §5

[12] = system: Acinetobacter baumannii (ATCC 17904); test: as above; type: cell-based; settings: 0.85 μg on 6 mm cellulose disk
Experimental: as §5

E. coli (ATCC 25922) = test: as above; type: cell-based; settings: 0.85 μg on 6 mm cellulose disk
Experimental: as §5

[13] = system: Listeria grayi (ATCC 19120); test: as above; type: cell-based; settings: 0.85 μg on 6 mm cellulose disk
Experimental: as §5

[14] = Maximum Tolerated Dose (MTD) study; type: in vivo; settings: CD-1 mice; subcutaneous 20, 40 or 80 mg/kg; observed 1 hour, 24 hours and 48 hours
Experimental: MTD studies were performed for Compound #1, Compound #2 and Compound #3. CD-1 mice, 6-8 weeks of age, were used for these studies. Groups of three mice were injected subcutaneously with 20 mg/kg, 40 mg/kg or 80 mg/kg of Compound #1, Compound #2 or Compound #3 Animals were observed 1 hour, 24 hours and 48 hours after administration of compound.

[15] = Acinetobacter baumannii, ATCC19606, EtOAc extracts of more highly purified compounds, read-out: MIC
[16] = Salmonella enterica, ATCC14028, EtOAc extracts of more highly purified compounds, read-out: MIC
[17] = Staphylococcus aureus, read-out: MIC
[18] = EtOAc extracts of more highly purified compounds

## CN[C@@H]1[C@@H](O)[C@@H](O[C@@H]2[C@@H](O)[C@H](O[C@H]3OC(CNCCO)=CC[C@H]3N)[C@@H](N)C[C@H]2NC(=O)[C@@H](O)CCN)OC[C@]1(C)O [ACHN-490, Plazomicin]
A. baumannii ATCC 19606; [15]
  MIC: 8 µg/mL

## CCC(C)C1N[C@@H]2OC[C@H](OC(=O)C(CC=O)NC1=O)[C@H](O[C@@H]1OC[C@@H](O)[C@H](O)[C@@H]1O)[C@@H]2O (stereo partly shown) [Compound #1]
HeLa cells; 5, 25, 50 nM
  changes in physical appearance of cell line: no changes in physical appearance
  pyrogenic reactions: No pyrogenic reactions
HeLa cells; 5, 25, 50 nM, cell counts on days two, four and six
  variation of death rates, treated vs untreated cell cultures: less than 5%
HeLa cells; T10 (50 nM)
  proliferation rate: slightly reduced
[1]
  changes in physical appearance of cell line: no changes in physical appearance
  pyrogenic reactions: No pyrogenic reactions
[1]; cell counts on days two, four and six
  variation of death rates, treated vs untreated cell cultures: less than 5%
S. pneumoniae ATCC 49619 [2]
  MIC: 64 µg/mL
C. difficile ATCC 70057
  MIC: 16 µg/mL
S. enterica ATCC 14028 [3]; [16]
  MIC: 16 µg/mL
H. influenzae ATCC 49247 [4]
  MIC: 0.5 µg/mL
[5]; [17]
  MIC: 16 µg/mL
A. baumannii ATCC 19606; [15]
  MIC: 8 µg/mL
K. pneumoniae ATCC 43816; Klebsiella pneumoniae, ATCC43816, EtOAc extracts of more highly purified compounds, read-out: MIC
  MIC: 8 µg/mL
S. pneumoniae ATCC 49619 [6]
  MIC: 16 µg/mL
P. aeruginosa ATCC 27853
  MIC: > 128 µg/mL
S. enterica ATCC 14028 [7]
  MIC: > 128 µg/mL
C. difficile ATCC 700057; ATCC700057, C. difficile ATCC 700057, Supplemented Brucella Broth + LHB, anaerobic, 46-48 h, read-out: Minimum inhibitory concentration (MIC)
  MIC: 32 µg/mL
H. influenzae ATCC 49247 [8]
  MIC: 2 µg/mL (≈ 4.2 µM)
[9]
  water solubility: water insoluble
[10]
  bacterial growth inhibition: significantly inhibited bacterial growth
[11]
  bacterial growth inhibition: significantly inhibited bacterial growth
Bacillus subtilis PY79
  bacterial growth inhibition: significantly inhibited bacterial growth
E. coli K-12
  bacterial growth inhibition: significantly inhibited bacterial growth
[12]
  bacterial growth inhibition: significantly inhibited bacterial growth
E. coli (ATCC 25922)
  bacterial growth inhibition: significantly inhibited bacterial growth
[13]
  bacterial growth inhibition: significantly inhibited bacterial growth
[14]
  signs of illness (MTD study): No signs of illness

## C[C@@H](O)[C@H]1C(=O)N2C(C(=O)O)=C(S[C@@H]3CN[C@H](C(=O)N(C)C)C3)[C@H](C)[C@H]12 [Meropenem]
S. enterica ATCC 14028 [3]; [16]
  MIC: > 16 µg/mL
[5]; [17]
  MIC: > 16 µg/mL
A. baumannii ATCC 19606; [15]
  MIC: 1 µg/mL

## CN[C@H](CC(C)C)C(=O)N[C@H]1C(=O)N[C@@H](CC(N)=O)C(=O)N[C@H]2C(=O)N[C@H]3C(=O)N[C@H](C(=O)N[C@H](C(=O)O)c4cc(O)cc(O)c4-c4cc3ccc4O)[C@H](O)c3ccc(c(Cl)c3)Oc3cc2cc(c3O[C@@H]2O[C@H](CO)[C@@H](O)[C@H](O)[C@H]2O[C@H]2C[C@](C)(N)[C@H](O)[C@H](C)O2)Oc2ccc(cc2Cl)[C@H]1O [VAN, vancomycin hydrochloride, reference compound]
C. difficile ATCC 700057; ATCC700057, read-out: Minimum inhibitory concentration (MIC)
  MIC: 0.25 µg/mL

## Colistin
S. enterica ATCC 14028 [3]; [18]
  MIC: >32 µg/mL
[5]
  MIC: 32 µg/mL
A. baumannii ATCC 19606; [18]
  MIC: >32 µg/mL
K. pneumoniae ATCC 43816; [18]
  MIC: 0.12 µg/mL
